The values below come from PMC6273373, “Elucidation of Transport Mechanism of Paeoniflorin and the Influence of Ligustilide, Senkyunolide I and Senkyunolide A on Paeoniflorin Transport through Mdck-Mdr1 Cells as Blood–Brain Barrier in Vitro Model” (Molecules, 2016).

In one series the test system is MDCK-MDR1 monolayers. In words: Transepithelial electrical resistance (TEER) before and after permeation. It counts as cell-based, canine. The note with it: after versus before permeation. The protocol:
Cell monolayers were pre-incubated in Hank’s buffered salt solution (HBSS, pH 7.4) for 30 min at 37 °C. Transepithelial electrical resistance (TEER) values were measured across the monolayers using a Millipore Millicell ERS system equipped with chopstick electrodes (Millipore Corporation, Billerica, MA, USA). Approximate MDCK-MDR1 values ranged from 500 to 800 Ω·cm^2. To measure apical (A)→basolateral (B) transporter, 0.5 mL of drug solution was added in A side and 1.5 mL of HBSS in B side. Basolateral (B)→apical (A) transporter was evaluated adding 1.5 mL of drug solution in B side and 0.5 mL of HBSS in A side. […] Transepithelial electrical resistance (TEER) of the monolayers was measured with the EVOM instrument (Millipore Corporation). The TEER of untreated cells and cells treated with LIG, SENI and SENA was determined in HBSS before and after the experiment. The measured TEER before the experiment was set as 100% and all other values were calculated according to this.

Series [1] has as its system P-gp. The series is described as follows: Western blot of P-gp expression in MDCK-MDR1 cells. It counts as cell-based, canine. Particulars: 8 hours. The method, then: Cells treated with different concentrations of LIG, SENA and SENI for 8 hours were subject to Western blot assay. Proteins were extracted from whole cell lysates and separated by sodium dodecyl sulfate–polyacrylamide gel electrophoresis, then transferred to a polyvinylidene fluoride (PVDF) membrane. The following primary antibodies were used: rabbit anti-P-gp (1:1000; Abcam, Cambridge, MA, USA) and mouse anti-β-actin (1:2000; Abcam). Membranes were then incubated with the horseradish peroxidase-conjugated secondary anti-bodies (1:5000; Abcam). The transferred proteins were incubated with enhanced chemiluminescence (ECL) substrate solution and visualized with the Image J program (Bio-Rad, Richmond, CA, USA). The relative levels were quantified densitometrically by using the Quantity One software (Bio-Rad Laboratories) and calculated according to the reference bands of β-actin.
For orientation: In western blotting, separated proteins are transferred to a membrane and probed.

In series [2] the test system is MDCK-MDR1 cell monolayers. The series is described as follows: Transport of PF across MDCK-MDR1 cell monolayers (BBB in vitro model), LC-MS/MS. It counts as in vitro ADME, canine. The protocol:
(§1) Cell monolayers were pre-incubated in Hank's buffered salt solution (HBSS, pH 7.4) for 30 min at 37 °C. Transepithelial electrical resistance (TEER) values were measured across the monolayers using a Millipore Millicell ERS system equipped with chopstick electrodes (Millipore Corporation, Billerica, MA, USA). […] To measure apical (A)→basolateral (B) transporter, 0.5 mL of drug solution was added in A side and 1.5 mL of HBSS in B side. Basolateral (B)→apical (A) transporter was evaluated adding 1.5 mL of drug solution in B side and 0.5 mL of HBSS in A side. […] Each measurement was evaluated in triplicate. Cells were incubated in a 37 °C shaking incubator. […] The supernatants were transferred to autosampler vials and injected into the LC-MS system. An HPLC system consisting of a solvent-delivery system […], an autosampler SIL-30 AC, a column oven CTO-30 AC, a solvent degasser DGU-20A3 and a controller CBM-20A from […] was used in the study. Separation was conducted using a Phenomenex Kinetex NB-C18 (100 × 3.0 mm, 2.6 μm, Torrance, CA, USA). The column oven was maintained at 30 °C. The mobile phase was water as mobile phase A and acetonitrile as mobile phase B. […] The injection volume was set at 5 μL. The MS analysis was performed on a 4500 QTRAPTM system from Applied Biosystems (AB Sciex) equipped with Turbo V sources and Turbo IonsprayTM interface. Electrospray ionization was performed in negative mode. The mass spectrometric parameters were optimized as: Turbo Ion Spray (TIS) temperature, 650 °C; ion spray voltage, -4500 V; curtain gas, nitrogen, 30; nebulizing gas, 50; TIS gas, 50; declustering potential, -130 eV for PF, 0 eV for internal standard (IS, gastrodin); collision energy, -30 eV for PF, -35 eV for IS. […] Analyst SoftwareTM (version 1.6.1) was used to process the obtained data. […] The efflux ratio (ER) was calculated according to the following Equation (4): (4) […]→BL

In another series the test system is P-gp (MDR1). The description is as above. It counts as in vitro ADME, canine. The note with it: dog, MDCK-MDR1, pH 7.4. The protocol: as §1
Assay in series [3]: as above
It counts as in vitro ADME, canine. Particulars: dog. The method, then:
as §1

Series [4] concerns P-gp. Described as above. It counts as in vitro ADME, canine. The note with it: dog, MDCK-MDR1, pH 7.4, 400 μg/mL PF + verapamil (P-gp inhibitor), mean ± SD (n = 3). The method, then: as §1
The mark [5] stands for this setting: enhancer 20 µg/mL with 400 µg/mL PF, versus PF alone.
[6] abbreviates: enhancer 40 µg/mL with 400 µg/mL PF, versus PF alone.
Setting [7] is: enhancer 80 µg/mL with 400 µg/mL PF, versus PF alone.

Consider `CCC/C=C1\OC(=O)C2=C1CC[C@H](O)[C@H]2O` [SENI, senkyunolide I], for which the “TEER change during permeation studies” value in the series with MDCK-MDR1 monolayers (80 μg/mL with 400 μg/mL PF) is given as “markedly decreased”. For the same molecule, the “P-gp expression versus control group” value in the series with P-gp [1] (20 μg/mL), in the series on P-gp [1] (40 μg/mL) and with P-gp [1] (80 μg/mL) was “markedly down-regulated” in each case. For the same molecule, the “Effect on A→B transport (Papp/flux) of PF” value (“Effect … (Papp/flux) of PF” for short) in series [2] (setting [5]), in series [2] (setting [6]) and in series [2] (setting [7]) was “significantly increased” each time.
Consider `CCCCC1OC(=O)C2=C1CCC=C2` (stereo not shown) [SENA, senkyunolide A], for which the “TEER change during permeation studies” value in the series on MDCK-MDR1 monolayers (20 μg/mL with 400 μg/mL PF) is reported as “markedly decreased”; in the series with MDCK-MDR1 monolayers (40 μg/mL with 400 μg/mL PF), “markedly decreased”; with MDCK-MDR1 monolayers (80 μg/mL with 400 μg/mL PF), “significantly decreased”. Besides, the “P-gp expression versus control group” value with P-gp [1] (20 μg/mL) is listed as “significantly down-regulated”; in the series on P-gp [1] (40 μg/mL) it was “markedly down-regulated”; in the series with P-gp [1] (80 μg/mL), “markedly down-regulated”. Further, the “Effect … (Papp/flux) of PF” value in series [2] (setting [5]), in series [2] (setting [6]) and in series [2] (setting [7]) was “significantly increased” throughout. Also, in series [2] (enhancer 80 µg/mL with 400 µg/mL PF, A→B, versus PF alone), the “Increase of the transport of PF” value is given as “approximately 109%”.
A word on the efflux ratio: it is the permeability from basolateral to apical divided by that in the opposite direction, in the common usage. By Papp B→A is commonly meant how fast a substance crosses the layer from the basolateral side. With `C[C@@]12C[C@@]3(O)O[C@@H](O1)[C@]1(COC(=O)c4ccccc4)[C@H]3C[C@@]12O[C@@H]1O[C@H](CO)[C@@H](O)[C@H](O)[C@H]1O` [PF, paeoniflorin], the “Increase of Papp (A→B) of PF in comparison with the non-EDTA-Na2 added” value in series [2] (400 μg/mL PF with 2.5 mmol/L EDTA-Na2) is given as “about five”. Besides, in series [2] (400 μg/mL PF with verapamil), the “Increase of Papp (A→B) of PF in comparison with the non-verapamil added” value was “about 1.2 fold”. Further, the “ER (B→A/A→B)” value in series [2] (PF 600 μg/mL, MDCK-MDR1 monolayers) is given as 2.156. Also, the “B→A/A→B permeability ER” value in series [2] (PF, all tested concentrations, MDCK-MDR1 cells) is reported as “more than 2”. Besides, in the series on P-gp (MDR1), the efflux ratio at 150 min, 100 μg/mL is 2.22; the efflux ratio at 150 min, 200 μg/mL turned out to be 2.13; the efflux ratio at 150 min, 400 μg/mL is 2.21; the efflux ratio at 150 min, 800 μg/mL stood at 2.01. Further, the Papp A→B at 150 min, 400 μg/mL in series [3] (MDCK-MDR1, pH 7.4, 400 μg/mL PF + 2.5 mmol/L EDTA-Na2, mean ± SD (n = 3)) was found to be 2.74 ± 0.212 ×10⁻⁶ cm/s. The molecule further gave a Papp A→B at 150 min, 100 μg/mL in series [3] (MDCK-MDR1, pH 7.4, PF 100 μg/mL, MDCK-MDR1 monolayers, mean ± SD (n = 3)) of 0.697 ± 0.053 ×10⁻⁶ cm/s. Further, the Papp A→B at 150 min, 200 μg/mL in series [3] (MDCK-MDR1, pH 7.4, PF 200 μg/mL, MDCK-MDR1 monolayers, mean ± SD (n = 3)) worked out at 0.691 ± 0.082 ×10⁻⁶ cm/s. The Papp A→B at 150 min, 400 μg/mL in series [3] (MDCK-MDR1, pH 7.4, PF 400 μg/mL, MDCK-MDR1 monolayers, mean ± SD (n = 3)) turned out to be 0.587 ± 0.088 ×10⁻⁶ cm/s. In series [3] (MDCK-MDR1, pH 7.4, PF 600 μg/mL, MDCK-MDR1 monolayers, mean ± SD (n = 3)), this molecule had a Papp A→B at 150 min, 600 μg/mL of 0.666 ± 0.072 ×10⁻⁶ cm/s. The molecule further yielded a Papp A→B at 150 min, 800 μg/mL in series [3] (MDCK-MDR1, pH 7.4, PF 800 μg/mL, MDCK-MDR1 monolayers, mean ± SD (n = 3)) of 0.705 ± 0.107 ×10⁻⁶ cm/s. Besides, the Papp A→B at 150 min in series [3] (MDCK-MDR1, pH 7.4, PF 100-800 μg/mL, MDCK-MDR1 cells, read-out: Papp (A→B), range over tested concentrations) lay within 0.587 to 0.705 ×10⁻⁶ cm/s. The same molecule returned a Papp B→A at 150 min, 100 μg/mL in series [3] (pH 7.4, PF 100 μg/mL, MDCK-MDR1 monolayers, mean ± SD (n = 3)) of 1.55 ± 0.092 ×10⁻⁶ cm/s. This molecule also registered a Papp B→A at 150 min, 200 μg/mL in series [3] (pH 7.4, PF 200 μg/mL, MDCK-MDR1 monolayers, mean ± SD (n = 3)) of 1.48 ± 0.363 ×10⁻⁶ cm/s. This molecule had a Papp B→A at 150 min, 400 μg/mL in series [3] (pH 7.4, PF 400 μg/mL, MDCK-MDR1 monolayers, mean ± SD (n = 3)) of 1.3 ± 0.084 ×10⁻⁶ cm/s. The apparent permeability from basolateral to apical (Papp B→A) at 150 min, 600 μg/mL in series [3] (pH 7.4, PF 600 μg/mL, MDCK-MDR1 monolayers, mean ± SD (n = 3)) is 1.44 ± 0.201 ×10⁻⁶ cm/s. Further, the apparent permeability from basolateral to apical (Papp B→A) at 150 min, 800 μg/mL in series [3] (pH 7.4, PF 800 μg/mL, MDCK-MDR1 monolayers, mean ± SD (n = 3)) came to 1.42 ± 0.097 ×10⁻⁶ cm/s. Further, the Papp A→B at 150 min, 400 μg/mL in the series with P-gp [4] is 0.707 ± 0.062 ×10⁻⁶ cm/s.
With `CCC/C=C1\OC(=O)C2=C1CCC=C2` [LIG, ligustilide], the “TEER change during permeation studies” value in the series on MDCK-MDR1 monolayers (20 μg/mL with 400 μg/mL PF) was “significantly decreased”; in the series with MDCK-MDR1 monolayers (40 μg/mL with 400 μg/mL PF) it was “markedly decreased”; with MDCK-MDR1 monolayers (80 μg/mL with 400 μg/mL PF), “markedly decreased”. For the same molecule, the “P-gp expression versus control group” value is recorded as “significantly down-regulated” in the series with P-gp [1] (20 μg/mL), “markedly down-regulated” in the series on P-gp [1] (40 μg/mL) and “markedly down-regulated” in the series with P-gp [1] (80 μg/mL). The “Effect … (Papp/flux) of PF” value in series [2] (setting [6]) and in series [2] (setting [7]) was “significantly increased” each time.
